In US20080064668A1, “1,3-Diacylated, 26,27-Alkyl/Haloakyl Vitamin D3 Compounds and Methods of Use Thereof” (BioXell S.p.A., priority 2003, published 2008):

Tests used:
[1] = Determination of Maximum Tolerated Dose (MTD); conditions: female, C57BL/6, mouse, in vivo, po
Protocol: The maximum tolerated dose of the vitamin D3 compounds of the invention were determined in eight week-old female C57BL/6 mice (3 mice/group) dosed orally (0.1 ml/mouse) with various concentrations of Vitamin D3 analogs daily for four days. Analogs were formulated in miglyol for a final concentration of 0.01, 0.03, 0.1 0.3, 1, 3, 10, 30, 100 and 300 μg/kg when given at 0.1 ml/mouse p.o. daily. Blood for serum calcium assay was drawn by tail bleed on day five, the final day of the study.

IFN-γ production = IFN-γ production in the mixed leukocyte response (MLR); type: cell-based; conditions: 120 h; allogeneic PBMC from 2 donors, 5 days, ELISA; read-out: INF-γ IC50
Protocol: Immature dendritic cells (DC) were prepared as described in Romani, N. et al. (Romani, N. et al. (1996) J. Immunol. Meth. 196:137). IFN-γ production by allogeneic T cell activation in the mixed leukocyte response (MLR) was determined as described in Penna, G., et al., J Immunol., 164: 2405-2411 (2000).
Briefly, peripheral blood mononuclear cells (PBMC) were separated from buffy coats by Ficoll gradient and the same number (3×10^5) of allogeneic PBMC from 2 different donors were co-cultured in 96-well flat-bottom plates. The vitamin D3 compounds were added to each of the cultures.

ECV = test: Proliferation assay using bladder cancer cell lines, ECV; type: cell-based, human; conditions: Homo sapiens; 72 h culture, CyQuant proliferation assay
RT112 = test: Proliferation assay using bladder cancer cell lines, RT112; type: cell-based, human; conditions: Homo sapiens, 72 h culture, CyQuant proliferation assay
Protocol: (§1) Bladder cancer cell lines (T24, RT112, HT1376 and RT4 are human bladder cancer cell lines; NHEK are normal human keratinocytes) were obtained from the European Collection of Cell Cultures (Salisbury, UK). Cells were plated at 3×10^3 per well, in flat bottomed 96-well plates in 100 μl of DMEM medium containing: 5% Fetal Clone I, 50 μg/l gentamicin, 1 mM sodium pyruvate and 1% non-essential amino acids. After culturing for 24 h at 37° C. in 5% CO2, to allow cells to adhere to the plates, VDR ligands (compounds (2), (4), (5) and other vitamin D3 analogs as shown in Table 4) were added at concentrations ranging from 100 μM to 0.3 μM in 100 μl of above-mentioned complete medium. After a further 72 h of culture, cell proliferation was measured using a fluorescence-based proliferation assay kit. (CyQuant Cell Proliferation Assay Kit, Molecular Probes, Eugene, Oreg., USA). The IC50 was calculated from the regression curve of the titration data.

HT 1376 = test: Proliferation assay using bladder cancer cell lines, HT1376; type: cell-based, human; conditions: Homo sapiens, HT-1376; 72 h culture, CyQuant proliferation assay
Protocol: as §1

RT4 = test: Proliferation assay using bladder cancer cell lines, RT4; type: cell-based, human; conditions: Homo sapiens, 72 h culture, CyQuant proliferation assay
Protocol: as §1

NHEK = test: Proliferation assay, NHEK normal human keratinocytes; type: cell-based; conditions: Homo sapiens, NHEK; 72 h culture, CyQuant proliferation assay
Protocol: as §1

Human BPH cells = test: BPH cell proliferation assay (testosterone-induced); type: cell-based; conditions: 48 h
Protocol: Human BPH cells, prepared, maintained and used as previously described in Crescioli C, et al. Journal of Clinical and Endocrinology Metabolism (2000) 85 p 2576-2583, were obtained from prostate tissues derived from 5 patients, who underwent suprapubic adenomectomy for BPH, after informed consent and approval by the Local Ethical Committee.
For all cell proliferation assays, 4×10^4 BPH cells were seeded onto 12-well plates in their growth medium, starved in red- and serum-free medium containing 0.1% BSA for 24 h, and then treated with specific stimuli for 48 h. Cells in phenol red- and serum-free medium containing 0.1% BSA were used as controls. Thereafter, cells were trypsinized, and each experimental point was derived from hemocytometer counting, averaging at least six different fields for each well, as previously reported (see Crescioli C, et al. Journal of Clinical and Endocrinology Metabolism (2000) 85 p 2576-2583).
Growth assays were also carried out using a fixed concentration of androgens (10 nM) with or without vitamin-D analogs (1 nM, 10 nM) or the anti-androgens finasteride (F, 1 nM) and cyproterone acetate (Cyp, 100 nM. Growth assays were also performed using a fixed concentration of T (10 nM) or GFs (10 ng/ml) with or without the vitamin-D analogs. (10 nM).
In the same experiment, each experimental point was repeated in triplicate or quadruplicate and experiments were performed 3 times. Results are expressed as % variation (mean±SEM) over the maximal T or GF-induced stimulation.

[2] = MTD in CD1 mouse (highest non-hypercalcemic dose); conditions: in vivo
[3] = system: human stromal bladder cells; test: Inhibition of basal human bladder cell growth; type: cell-based
Text: The Inventors confirmed the presence of vitamin D receptors (VDRs), as previously reported in the literature, on these cells (see below in FIG. 3).
(§2) The maximum tolerated dose (MTD) in rats is also listed for each compound (Table 7).

[4] = Maximum tolerated dose (MTD) in rats (Table 7); conditions: rat, in vivo
Text: as §2

Structure (SMILES)	MTD at 4 days [1]	IC50 (IFN-γ production)	IC50 (ECV)	IC50 (RT112; RT-112, 72 h)	IC50 (HT 1376)	IC50 (RT4; RT-4, 72 h)	IC50 (NHEK)	IC50 (Human BPH cells)	MTD [2]	IC50 ([3]; Homo sapiens)	MTD [4]	IC50 (RT112; RT-112)	IC50 (RT4; RT-4)	inhibiting the basal growth of bladder cells ([3]; human stromal bladder cells in culture)
C=C1/C(=C\C=C2/CCC[C@]3(C)C(C(C)CC#CC(C)(C)O)=CCC23)CC(OC(C)=O)C[C@@H]1OC(C)=O (stereo partly drawn) [(7), 1,3-Di-O-acetyl-1,25-dihydroxy-16-ene-23-yne-cholecalciferol]	0.01 mg/kg	0.051 nM	27.7 µM	3 µM	> 100 µM	80 µM	4.8 µM	42.7 µM	0.01 mg/kg	–	–	–	–	–
C=C1/C(=C\C=C2/CCC[C@]3(C)C(C(C)CC#CC(O)(C(F)(F)F)C(F)(F)F)=CCC23)CC(OC(C)=O)C[C@@H]1OC(C)=O (stereo partly drawn) [(14), 1,3-Di-O-acetyl-1,25-dihydroxy-16-ene-23-yne-26,27-hexafluoro-cholecalciferol]	0.01 mg/kg	0.0273 nM	> 100 µM	26 µM	> 100 µM	19 µM	0.98 µM	501 µM	0.01 mg/kg	–	–	–	–	–
CC(=O)OC1C/C(=C/C=C2\CCC[C@@]3(C)C2CCC3C2(CC#CC(OC(C)=O)(C(F)(F)F)C(F)(F)F)CC2)C[C@@H](OC(C)=O)C1 (stereo partly drawn) [(26), 1,3,25-Tri-O-acetyl-1,25-dihydroxy-20-cyclopropyl-23-yne-26,27-hexafluoro-19-nor-cholecalciferol]	0.01 mg/kg	0.922 nM	63.5 µM	15 µM	> 100 µM	5 µM	32.8 µM	> 100000 µM	0.01 mg/kg	–	–	–	–	–
CC(=O)OC1C/C(=C/C=C2\CCC[C@@]3(C)C2CCC3C2(CC#CC(O)(C(F)(F)F)C(F)(F)F)CC2)C[C@@H](OC(C)=O)C1 (stereo partly drawn) [(27), 1,3-Di-O-acetyl-1,25-dihydroxy-20-cyclopropyl-23-yne-26,27-hexafluoro-19-nor-cholecalciferol]	0.01 mg/kg	0.078 nM	25.5 µM	–	43 µM	–	2.6 µM	0.000794 µM	0.01 mg/kg	–	–	–	–	–
C=C1/C(=C\C=C2/CCC[C@@]3(C)C2CCC3C2(CC#CC(C)(C)O)CC2)CC(OC(C)=O)C[C@@H]1OC(C)=O (stereo partly drawn) [(29), 1,3-Di-O-acetyl-1,25-dihydroxy-20-cyclopropyl-23-yne-cholecalciferol]	0.03 mg/kg	0.0078 nM	49.6 µM	8 µM	80 µM	13 µM	5.9 µM	0.00316 µM	0.03 mg/kg	< 10000 µM	0.03 mg/kg	–	–	–
C=C1/C(=C\C=C2/CCC[C@@]3(C)C2CCC3C(C)CC#CC(C)(C)O)CC(OC(C)=O)C[C@@H]1OC(C)=O (stereo partly drawn) [(41), 1,3-Di-O-acetyl-1,25-dihydroxy-23-yne-cholecalciferol]	0.001 mg/kg	0.08 nM	40 µM	8 µM	> 100 µM	85 µM	4.2 µM	0.000724 µM	0.001 mg/kg	–	–	–	–	–
C=C1/C(=C\C=C2/CCC[C@]3(C)[C@@H]([C@H](C)CCCC(C)(C)O)CC[C@@H]23)C[C@@H](O)C[C@@H]1O [Calcitriol, 1,25-dihydroxycholecalciferol, reference compound]	0.001 mg/kg	0.022 nM	–	–	50 µM	–	4.9 µM	0.0851 µM	0.001 mg/kg	–	–	19 µM	45 µM	effective
